Paper PMC4809600, “The Influence of Chronic Wound Extracts on Inflammatory Cytokine and Histatin Stability” (PLoS ONE, 2016)
Read-outs that look alike come from different tables or passages of the source. Where no end group is shown, it is not given here.

Experiment: Dose response of Hst1 and PIC in the presence of CWE
Assay type: in vitro ADME, human
Conditions: CWE 1 mg/ml, 37°C, CZE, 0 h = 100%
Experimental: For the dose response of PIC and Hst1, three different concentrations of Hst1 were prepared (0.5 mg/ml, 1 mg/ml and 2 mg/ml) and two different concentrations of PIC were used. The final PIC concentration in the CWE (1 mg/ml) sample was 1:140 v/v (same as above) or 1:280 v/v (2x diluted). Mixtures were incubated at 37°C and samples were taken at 0, 24 and 96 h.
The samples were analyzed with a BioFocus 2000 capillary zone electrophoresis system (Bio-Rad Laboratories, Hercules, CA, USA) equipped with an uncoated fused-silica capillary of internal diameter 50 μm and a length of 24 cm. Samples were loaded by pressure injection (5 psi/sec). Separation was performed at 10 kV (cathode at the detector side) at 20°C using 0.1 M phosphate buffer (pH 2.5) as electrolyte and monitored continuously at 200 nm. Peaks were quantified with the BioFocus Integrator software. In order to quantify the percentage of intact peptides remaining after incubation with CWE, the ratios of histatins, rhIL-6 or rhCXCL8 to internal standard was set at 100% at 0h, and the ratios at the other incubation time points were related to this.

Intact Hst1, CWE + PIC 1:140 24h (Hst1 0.5 mg/ml, PIC:CWE 1:140 v/v, 24 h, experiment 1 of 3): 73.4639%
Intact Hst1, CWE + PIC 1:140 24h (Hst1 0.5 mg/ml, PIC:CWE 1:140 v/v, 24 h, experiment 2 of 3): 69.7277%
Intact Hst1, CWE + PIC 1:140 24h (Hst1 0.5 mg/ml, PIC:CWE 1:140 v/v, 24 h, experiment 3 of 3): 63.6084%
Intact Hst1, CWE + PIC 1:140 96h (Hst1 0.5 mg/ml, PIC:CWE 1:140 v/v, experiment 1 of 3): 54.3382%
Intact Hst1, CWE + PIC 1:140 96h (Hst1 0.5 mg/ml, PIC:CWE 1:140 v/v, experiment 2 of 3): 46.1353%
Intact Hst1, CWE + PIC 1:280 24h (Hst1 0.5 mg/ml, PIC:CWE 1:280 v/v, 24 h, experiment 1 of 3): 49.1645%
Intact Hst1, CWE + PIC 1:280 24h (Hst1 0.5 mg/ml, PIC:CWE 1:280 v/v, 24 h, experiment 2 of 3): 30.5445%
Intact Hst1, CWE + PIC 1:280 96h (Hst1 0.5 mg/ml, PIC:CWE 1:280 v/v, experiment 1 of 3): 24.1883%
Intact Hst1, CWE + PIC 1:280 96h (Hst1 0.5 mg/ml, PIC:CWE 1:280 v/v, experiment 2 of 3): 18.189%
Intact Hst1, CWE + PIC 1:140 24h (Hst1 1 mg/ml, PIC:CWE 1:140 v/v, 24 h, experiment 3 of 3): 58.7589%
Intact Hst1, CWE + PIC 1:140 96h (Hst1 1 mg/ml, PIC:CWE 1:140 v/v, experiment 3 of 3): 38.9986%
Intact Hst1, CWE + PIC 1:280 24h (Hst1 1 mg/ml, PIC:CWE 1:280 v/v, 24 h, experiment 3 of 3): 38.2658%
Intact Hst1, CWE + PIC 1:280 96h (Hst1 1 mg/ml, PIC:CWE 1:280 v/v, experiment 3 of 3): 25.9997%
Intact Hst1, CWE + PIC 1:140 24h (Hst1 2 mg/ml, PIC:CWE 1:140 v/v, 24 h, experiment 1 of 3): 77.6287%
Intact Hst1, CWE + PIC 1:140 24h (Hst1 2 mg/ml, PIC:CWE 1:140 v/v, 24 h, experiment 2 of 3): 76.5019%
Intact Hst1, CWE + PIC 1:140 24h (Hst1 2 mg/ml, PIC:CWE 1:140 v/v, 24 h, experiment 3 of 3): 68.9738%
Intact Hst1, CWE + PIC 1:140 96h (Hst1 2 mg/ml, PIC:CWE 1:140 v/v, experiment 1 of 3): 61.2993%
Intact Hst1, CWE + PIC 1:140 96h (Hst1 2 mg/ml, PIC:CWE 1:140 v/v, experiment 2 of 3): 47.6383%
Intact Hst1, CWE + PIC 1:140 96h (Hst1 2 mg/ml, PIC:CWE 1:140 v/v, experiment 3 of 3): 45.7764%
Intact Hst1, CWE + PIC 1:280 24h (Hst1 2 mg/ml, PIC:CWE 1:280 v/v, 24 h, experiment 1 of 3): 61.8953%
Intact Hst1, CWE + PIC 1:280 24h (Hst1 2 mg/ml, PIC:CWE 1:280 v/v, 24 h, experiment 2 of 3): 55.6946%
Intact Hst1, CWE + PIC 1:280 24h (Hst1 2 mg/ml, PIC:CWE 1:280 v/v, 24 h, experiment 3 of 3): 47.0948%
Intact Hst1, CWE + PIC 1:280 96h (Hst1 2 mg/ml, PIC:CWE 1:280 v/v, experiment 1 of 3): 42.3498%
Intact Hst1, CWE + PIC 1:280 96h (Hst1 2 mg/ml, PIC:CWE 1:280 v/v, experiment 2 of 3): 34.4262%
Intact Hst1, CWE + PIC 1:280 96h (Hst1 2 mg/ml, PIC:CWE 1:280 v/v, experiment 3 of 3): 43.3131%
remaining at 96 h, 0.5 mg/ml (human, chronic wound extracts (CWE), with protease inhibitor cocktail (PIC), PIC:CWE 1:140 v/v, Hst1 0.5 mg/ml, PIC:CWE 1:140 v/v, experiment 3 of 3, read-out: Intact Hst1, CWE + PIC 1:140 96h): 37.5%
remaining at 24 h, 1 mg/ml (human, chronic wound extracts (CWE), with protease inhibitor cocktail (PIC), PIC:CWE 1:140 v/v, Hst1 1 mg/ml, PIC:CWE 1:140 v/v, 24 h, experiment 1 of 3, read-out: Intact Hst1, CWE + PIC 1:140 24h): 76.2%
remaining at 24 h, 1 mg/ml (human, chronic wound extracts (CWE), with protease inhibitor cocktail (PIC), PIC:CWE 1:140 v/v, Hst1 1 mg/ml, PIC:CWE 1:140 v/v, 24 h, experiment 2 of 3, read-out: Intact Hst1, CWE + PIC 1:140 24h): 67%
remaining at 96 h, 1 mg/ml (human, chronic wound extracts (CWE), with protease inhibitor cocktail (PIC), PIC:CWE 1:140 v/v, Hst1 1 mg/ml, PIC:CWE 1:140 v/v, experiment 1 of 3, read-out: Intact Hst1, CWE + PIC 1:140 96h): 53.2%
remaining at 96 h, 1 mg/ml (human, chronic wound extracts (CWE), with protease inhibitor cocktail (PIC), PIC:CWE 1:140 v/v, Hst1 1 mg/ml, PIC:CWE 1:140 v/v, experiment 2 of 3, read-out: Intact Hst1, CWE + PIC 1:140 96h): 43.5%
remaining at 24 h, 0.5 mg/ml (human, chronic wound extracts (CWE), with protease inhibitor cocktail (PIC), PIC:CWE 1:280 v/v, Hst1 0.5 mg/ml, PIC:CWE 1:280 v/v, 24 h, experiment 3 of 3, read-out: Intact Hst1, CWE + PIC 1:280 24h): 34.4%
remaining at 96 h, 0.5 mg/ml (human, chronic wound extracts (CWE), with protease inhibitor cocktail (PIC), PIC:CWE 1:280 v/v, Hst1 0.5 mg/ml, PIC:CWE 1:280 v/v, experiment 3 of 3, read-out: Intact Hst1, CWE + PIC 1:280 96h): 20.3%
remaining at 24 h, 1 mg/ml (human, chronic wound extracts (CWE), with protease inhibitor cocktail (PIC), PIC:CWE 1:280 v/v, Hst1 1 mg/ml, PIC:CWE 1:280 v/v, 24 h, experiment 1 of 3, read-out: Intact Hst1, CWE + PIC 1:280 24h): 60.2%
remaining at 24 h, 1 mg/ml (human, chronic wound extracts (CWE), with protease inhibitor cocktail (PIC), PIC:CWE 1:280 v/v, Hst1 1 mg/ml, PIC:CWE 1:280 v/v, 24 h, experiment 2 of 3, read-out: Intact Hst1, CWE + PIC 1:280 24h): 51.5%
remaining at 96 h, 1 mg/ml (human, chronic wound extracts (CWE), with protease inhibitor cocktail (PIC), PIC:CWE 1:280 v/v, Hst1 1 mg/ml, PIC:CWE 1:280 v/v, experiment 1 of 3, read-out: Intact Hst1, CWE + PIC 1:280 96h): 37%
remaining at 96 h, 1 mg/ml (human, chronic wound extracts (CWE), with protease inhibitor cocktail (PIC), PIC:CWE 1:280 v/v, Hst1 1 mg/ml, PIC:CWE 1:280 v/v, experiment 2 of 3, read-out: Intact Hst1, CWE + PIC 1:280 96h): 41.5%
Sequence: DSHEKRHHGYRRKFHEKHHSHREFPFYGDYGSNYLYDN [Hst1]
